We go through two molecules from patent US20250257048A1, “METHODS OF PREPARING AN ISOINDOLINONE DERIVATIVE AND CRYSTAL FORMS THEREOF” (Monte Rosa Therapeutics, Inc., priority 2022, published 2025).

The nature of data set [1]: solubility of crystalline Form I in media (water) at 37° C. The format is physicochemical. How it is done: Solubility of crystalline Form I was evaluated by weighing about 10 mg of crystalline Form I into 2 mL of media, and then stirring the suspension at 37° C. for 24 hours. At 1, 4 and 24 hours, the suspensions were filtered, and the filtrates were analyzed by HPLC and pH.

Data set [2] can be described thus: solid stability at 40° C./75% RH and 25° C./60% RH for 7 days (HPLC purity, XRPD). The note with it: for physical and chemical stability: 25° C. 60% RH and 40° C. 75% RH for 7 days. In kind it is physicochemical. Here is the method: Solid stability was evaluated at 40° C./75RH and 25° C./60% RH for 7 days.
Data set [3] is described as follows: hygroscopicity of crystalline form. In kind it is physicochemical.
For a further data set, the target named is GSPT1 (Homo sapiens (Human), UniProt P15170+Q96SW2). The data set can be described thus: immunofluorescence assay for GSPT1 degradation in CAL-51 cells. The format is cell-based. To be noted: 6 hours treatment. How it is done: The representative compounds were tested in an immunofluorescence assay for their activity to bind to degrade GSPT1. CAL-51 cells were purchased from DSMZ (cat. Number ACC302), sub-cultured in 90% Dulbecco's MEM (4.5 g/L glucose, Gibco 11965)+10% heat inactivated FBS (BioConcept, 2-01F136I) and incubated at 37° C., 5% CO2. For the assay, imaging microtiterplate Cell Carrier 96 Ultra (Perkin Elmer 6055302) were pre-coated with Fibronectin (Sigma F085, 30 μl at 0.2 μg/ml) in PBS (100 μl, Gibco 14190) for 45 min at room temperature, rinsed with PBS and CAL-51 cells (30K cells/well) were plated and let to adhere overnight. Cells were treated with compounds typically using a serial dilution ranging from 30 μM to 0.1 nM for 6 hours. […]
GSPT1, sequence (P15170 whole entry): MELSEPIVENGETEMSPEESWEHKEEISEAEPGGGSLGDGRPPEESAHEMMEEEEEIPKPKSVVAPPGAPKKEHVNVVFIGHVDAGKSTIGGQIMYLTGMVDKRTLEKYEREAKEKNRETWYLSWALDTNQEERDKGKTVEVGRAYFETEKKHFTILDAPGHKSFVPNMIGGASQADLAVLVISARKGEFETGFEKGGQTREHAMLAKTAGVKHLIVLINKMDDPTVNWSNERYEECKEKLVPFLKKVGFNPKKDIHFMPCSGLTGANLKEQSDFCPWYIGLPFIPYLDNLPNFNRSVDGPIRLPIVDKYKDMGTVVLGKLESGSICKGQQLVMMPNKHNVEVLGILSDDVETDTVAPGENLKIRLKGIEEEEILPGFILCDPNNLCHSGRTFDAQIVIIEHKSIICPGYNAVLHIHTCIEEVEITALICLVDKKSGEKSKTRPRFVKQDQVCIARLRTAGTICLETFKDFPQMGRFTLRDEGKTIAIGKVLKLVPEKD
GSPT1, sequence (Q96SW2 whole entry): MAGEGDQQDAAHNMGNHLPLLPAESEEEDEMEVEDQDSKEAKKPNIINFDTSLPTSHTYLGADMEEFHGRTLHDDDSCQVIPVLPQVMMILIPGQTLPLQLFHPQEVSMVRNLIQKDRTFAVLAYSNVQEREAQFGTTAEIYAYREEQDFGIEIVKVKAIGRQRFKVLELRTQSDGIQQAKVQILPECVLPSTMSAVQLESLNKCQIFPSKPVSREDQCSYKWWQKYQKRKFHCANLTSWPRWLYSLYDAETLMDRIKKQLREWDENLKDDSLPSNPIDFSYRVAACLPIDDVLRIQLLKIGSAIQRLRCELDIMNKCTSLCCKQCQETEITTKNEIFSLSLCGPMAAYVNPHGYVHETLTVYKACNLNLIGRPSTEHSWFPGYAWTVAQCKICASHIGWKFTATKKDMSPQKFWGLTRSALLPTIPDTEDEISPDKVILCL
GSPT1, sequence (Q16531 whole entry partner): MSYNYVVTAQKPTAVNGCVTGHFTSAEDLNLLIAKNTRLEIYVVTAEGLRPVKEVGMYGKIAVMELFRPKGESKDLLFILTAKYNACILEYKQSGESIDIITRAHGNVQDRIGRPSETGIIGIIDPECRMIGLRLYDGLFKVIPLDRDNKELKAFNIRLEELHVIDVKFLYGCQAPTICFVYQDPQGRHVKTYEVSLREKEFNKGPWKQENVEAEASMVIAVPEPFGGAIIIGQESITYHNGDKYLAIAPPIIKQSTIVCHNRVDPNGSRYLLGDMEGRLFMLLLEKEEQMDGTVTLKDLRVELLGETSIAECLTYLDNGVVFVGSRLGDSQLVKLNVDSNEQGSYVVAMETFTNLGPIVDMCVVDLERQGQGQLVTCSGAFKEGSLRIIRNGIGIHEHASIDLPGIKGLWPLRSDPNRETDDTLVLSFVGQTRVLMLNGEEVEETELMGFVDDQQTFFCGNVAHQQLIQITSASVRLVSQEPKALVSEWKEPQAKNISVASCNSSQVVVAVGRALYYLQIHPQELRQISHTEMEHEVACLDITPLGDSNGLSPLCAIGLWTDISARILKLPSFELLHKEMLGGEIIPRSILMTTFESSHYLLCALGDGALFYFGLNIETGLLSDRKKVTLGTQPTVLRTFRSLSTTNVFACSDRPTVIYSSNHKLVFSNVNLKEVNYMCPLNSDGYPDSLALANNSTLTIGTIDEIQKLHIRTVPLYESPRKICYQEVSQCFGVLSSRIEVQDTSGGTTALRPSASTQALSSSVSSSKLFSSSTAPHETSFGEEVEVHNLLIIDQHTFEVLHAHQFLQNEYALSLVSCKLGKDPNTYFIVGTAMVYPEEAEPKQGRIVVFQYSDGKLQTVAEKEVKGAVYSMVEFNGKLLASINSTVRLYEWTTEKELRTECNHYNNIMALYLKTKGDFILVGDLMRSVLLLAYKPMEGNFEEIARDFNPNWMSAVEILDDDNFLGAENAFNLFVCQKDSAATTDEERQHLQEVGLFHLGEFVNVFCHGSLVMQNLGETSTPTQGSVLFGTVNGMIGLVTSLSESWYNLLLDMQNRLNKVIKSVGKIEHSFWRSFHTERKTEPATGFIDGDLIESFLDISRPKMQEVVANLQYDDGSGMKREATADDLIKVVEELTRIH
Primary antibody (human GSPT1, Sigma HPA052488) was diluted in blocking buffer (dil.1/300, 35 μl/well) and incubated with the cells overnight at 4° C. […] Fluorescence intensity of Alexa-Fluor 488 (GSPT1), Alexa-Fluor 647 (Actin) and DAPI (Nucleus) were measured. […] The outline of the cells was determined analogously from the sum of the normalized, smoothed DAPI and Actin channel, starting from each nucleus.
The Alexa-Fluor 488 (GSPT1) signal intensity in each cell was finally measured, in order to obtain a Mean intensity per cell. GSPT1 degradation (DC50) was calculated after normalization to controls and data import in CDD vault Database, using non-linear regression. […]

For data set [4], the target named is Full length wild-type cereblon CRBN (Homo sapiens (Human), UniProt Q96SW2). The data set can be described thus: fluorescence polarization (FP) homogeneous assay, cereblon binding. The note with it: CRBN 80.0 nM, probe 5 nM, FP read after 12 hours, read-out: rFP IC50. Here is the method: Compound activity was monitored in a fluorescence polarization (FP) homogeneous assay using 1-[5-({2-[2-(2-{[2-(2,6-dioxopiperidin-3-yl)-1,3-dioxo-2,3-dihydro-1H-isoindol-4-yl]oxy}acetamido) ethoxy]ethyl}carbamoyl) pentyl]-3,3-dimethyl-2-[(1E,3E)-5-[(2E)-1,3,3-trimethyl-5-sulfo-2,3-dihydro-1H-indol-2-ylidene]penta-1,3-dien-1-yl]-3H-indol-1-ium-5-sulfonate as a fluorescent probe. Unless otherwise stated, all reagents were purchased from Sigma Aldrich. Enzymatic reactions were conducted in Perkin-Elmer Black 384 well ProxiPlate Plus (catalogue no. 6008269) in 10 μL total volume. Full length wild-type cereblon CRBN (80.0 nM, 10 μL) was incubated in assay buffer containing 20 mM HEPES (pH 8.0), […], 0.5 mM TCEP and 0.05% Tween 20 in the presence or absence of compound (300 nL). Inhibitors were stored as 10 mM DMSO stocks in an inert environment (low humidity, dark, low oxygen, room temperature) using the Storage Pod System. Compounds and DMSO were dispensed using the Echo E5XX (Labcyte Inc. USA) to give concentrations from 300 to 0.937 or 3000 to 9.3 nM in a 12 data point curve. […] FP was measured after a period of 12 hours using a Pherastar plate reader (BMG Labtech, Germany) exciting at 590 nm and measuring the amount of parallel and perpendicular light at 675 nm. […]
Full length wild-type cereblon CRBN, sequence (Q96SW2 whole entry): as the sequence (Q96SW2 whole entry) above

“And” between values parts separate entries of the source, which are not always exact repeats. Equal values may be shown once. Read-outs that look alike come from different tables or passages of the source.

What is called solubility is the dissolved amount per volume that the medium holds. Regarding `O=C1CCC(N2Cc3ccc(COC(=O)Nc4cc(OC(F)(F)F)ccc4F)cc3C2=O)C(=O)N1` (centres unmarked) [Form I, (2-(2,6-dioxopiperidin-3-yl)-3-oxoisoindolin-5-yl)methyl (2-fluoro-5-(trifluoromethoxy)phenyl)carbamate], the “crystal form of remained solid in all media” value in data set [1] (37° C., after 1, 4 and 24 hours, XRPD (FIG. 5)) is “unchanged”. The solubility in data set [1] (aqueous solution, 37 °C, aqueous buffer, thermodynamic from solid, about pH 6 to 7, read-out: solubility in an aqueous solution) was under 1 µg/mL; in data set [1] (water, 37 °C, water, thermodynamic from solid, read-out: solubility in water) it was under 1 µg/mL. Moreover, in data set [1] (pH of filtrate, H2O, 37° C., 24 h), the “pH(24 h)” value is 6.35 and 6.61 and 6.41. Moreover, the “XRPD(24 h)” value in data set [1] (remained solid, H2O, 37° C., 24 h) is recorded as “Form I”. In addition, the solubility at 1 h in data set [1] (water, 37 °C, thermodynamic from solid, H2O, 1 h, triplicate H2O-1 to H2O-3) is under 1 µg/mL. The same molecule returned a solubility at 4 h in data set [1] (water, 37 °C, thermodynamic from solid, H2O, 4 h, triplicate H2O-1 to H2O-3) of under 1 µg/mL. The molecule also had a solubility at 24 h in data set [1] (water, 37 °C, thermodynamic from solid, H2O, 24 h, triplicate H2O-1 to H2O-3) of under 1 µg/mL. Besides, the “physical and chemical stability” value is “good physical and chemical stability” in data set [2]; “physically and chemically stable” in data set [2] (listed as Crystalline Form I); “no obvious degradation nor form change” in data set [2] (listed as crystalline Form I). The Purity in data set [2] (25° C./60% RH, 1 day) was 100%; in data set [2] (25° C./60% RH, 7 day), 100%; in data set [2] (40° C./75% RH, 1 day), 100%; in data set [2] (40° C./75% RH, 7 day), 99.95%. Also, the XRPD entry in data set [2] (25° C./60% RH, 1 day) was “Form I”; in data set [2] (25° C./60% RH, 7 day), “Form I”; in data set [2] (40° C./75% RH, 1 day), “Form I”; in data set [2] (40° C./75% RH, 7 day), “Form I”. In data set [2] (T0 (day 0), HPLC), the Purity-T0 is on record as 100%. Besides, the hygroscopicity entry in data set [3] was “nonhydroscopic”.
By DC50 is commonly meant the concentration at which degradation of the target reaches its halfway point. Low values mean a more potent degrader, high ones a less potent degrader. The IC50 is the concentration at which inhibition is half-maximal. For `O=C1CCC(N2Cc3ccc(COC(=O)Nc4cc(OC(F)(F)F)ccc4F)cc3C2=O)C(=O)N1` (centres unmarked) [Compound 145, (2-(2,6-dioxopiperidin-3-yl)-3-oxoisoindolin-5-yl)methyl (2-fluoro-5-(trifluoromethoxy)phenyl)carbamate], the 50% degradation concentration (DC50) at GSPT1 is 0.03 to 0.3 µM. Moreover, the IC50 in data set [4] was 0.5 to 1.1 µM.
